For one compound, IC50, Activity and viability results are on record in ChEMBL document CHEMBL6096670, “Design, synthesis and biological evaluation of novel β-carbolines as antitumor agents via targeting autophagy in colorectal cancer” (Eur J Med Chem, 2025).

The test system of experiment [1] is HCT-116. Kind of experiment: Antiproliferative activity against ATG7 knockout human HCT-116 cells assessed as inhibition of cell viability incubated for 24 hrs by CCK8 assay. In kind it is functional, cell-based. The following applies: HCT-116, 24 h.
Experiment [2] relates to HCT-116. Kind of experiment: Antiproliferative activity against Bax knockout human HCT-116 cells assessed as inhibition of cell viability incubated for 24 hrs by CCK8 assay. Format: functional, cell-based. The following applies: HCT-116, 24 h. Background: Formazan colour is commonly taken as a measure of viable cells.
Experiment [3] deals with HCT-116. Briefly: Upregulation of autophagy pathway related genes expression in human HCT-116 cells at 1 uM incubated for 24 hrs by heat map analysis. Format: functional, cell-based.
The subject of experiment [4] is HCT-116. Kind of experiment: Induction of apoptosis in human HCT-116 assessed as viable cells at 2 uM incubated for 24 hrs Annexin V FITC/PI double staining based flow cytometry (Rvb =90.0%). In kind it is functional. As to conditions: read-out: Activity. (Flow cytometry measures light scatter and fluorescence of single cells or particles in a stream.)
For experiment [5], the system named is HCT-116. Kind of experiment: Induction of apoptosis in human HCT-116 assessed as late apoptotic cells at 1 uM pretreated with Z-VAD-FMK for 30 mins followed by compound addition and measured after 24 hrs by Annexin V-FITC/PI double staining based flow cytometry (reference value: 7.43 %). In kind it is functional.
In experiment [6] the test system is HCT-116. Kind of experiment: Induction of apoptosis in human HCT-116 assessed as necrotic cells at 2 uM pretreated with Z-VAD-FMK for 30 mins followed by compound addition and measured after 24 hrs by Annexin V-FITC/PI double staining based flow cytometry (reference value: 0.84%). Format: functional.
Experiment [7] deals with HCT-116. Kind of experiment: Induction of autophagy in human HCT-116 cells transfected with mRFP-GFP-LC3B assessed as autophagolysosome formation by measuring RFP fluorescence at 0.5 to 2 uM incubated for 24 hrs by DAPI staining based fluorescence confocal microscopic analysis. As to conditions: dose 0.5-2 µM. In kind it is functional, cell-based.
In a further experiment the test system is HepG2. Kind of experiment: Antiproliferative activity against human HepG2 cells assessed as inhibition of cell growth incubated for 48 hrs by MTT assay. Format: functional, cell-based. The following applies: HepG2, 48 h.
For experiment [8], the system named is HCT-116. Briefly: Induction of morphological changes in human HCT-116 cells assessed as appearance of rounder cells at 0.5 to 2 uM by microscopic analysis. Format: functional, cell-based. As to conditions: dose 0.5-2 µM.

Activity calls are given as the source filed them. No cut-off for these calls is given here.

One may read the IC50 as the midpoint of a concentration-inhibition curve. As to `CCN(CC)CCCNCc1cc2c3ccccc3n(CCCc3ccccc3)c2c(CNCCCN(CC)CC)n1`, the IC50 with HCT-116 [1] amounted to 6.49 µM; in the experiment on HCT-116 [2], 2.76 µM; with HepG2, 4.58 µM. For the same compound, the result in the experiment with HCT-116 [3] and with HCT-116 [8] was Active. Besides, the viability at 2 µM with HCT-116 [4] was determined as 80.5%. Besides, the results for the Activity with HCT-116 [5], in the experiment on HCT-116 [6] and in the experiment on HCT-116 [7] were 12.4%, 1.8% and “Active; Rfp Fluorescence Remained Unchanged”, respectively.
